Results reported in patent US20030162765A1, “2-amino-6-(2-substituted-4-phenoxy)-substituted-pyridines” (Pfizer Inc., priority 1997, published 2003).
Counter-ions that a name gives are not always drawn.

Question: With COc1cc(-c2cccc(N)n2)ccc1OCCN(C)C (as salt: hydrochloride) [Example 6, 6-[4-(2-Dimethylamino-ethoxy)-3-methoxy-phenyl]-pyridin-2-ylamine] as the compound, how does the melting point read?
Answer: 225 to 228 °C

Question: For COc1cc(-c2cccc(N)n2)ccc1OCCN1CCN(CCc2ccccc2)CC1 (as salt: hydrochloride) [Example 9, 6-{3-methoxy-4-[2-(4-phenethyl-piperazin-1-yl)-ethoxy]-phenyl}-pyridin-2-ylamine], which melting point is on record?
Answer: 167 to 182 °C

Question: With CCOc1cc(-c2cccc(N)n2)ccc1OCCN(C)C (as salt: hydrochloride) [Example 12, 6-[4-(2-Dimethylamino-ethoxy)-3-ethoxy-phenyl]-pyridin-2-ylamine] as the compound, how does the melting point read?
Answer: 210 to 216 °C

Question: With Cc1cc(-c2cccc(N)n2)c(C)cc1OCCN(C)C (as salt: hydrochloride) [Example 110, 6-[4-(2-dimethylamino-ethoxy)-2,5-dimethyl-phenyl]-pyridin-2-ylamine] as the compound, how does the melting point read?
Answer: 205 to 209 °C

Question: Which melting point does the source give for Cc1cc(-c2cccc(N)n2)c(C)cc1OCCN1CCN(CCc2ccccc2)CC1 (as salt: hydrochloride) [Example 111, 6-[4-(2-(4-Phenethylpiperazin-1-yl)-ethoxy)-2,5-dimethyl-phenyl]-pyridin-2-ylamine] here?
Answer: > 220 °C
